Reference: publication PMC6100082, “Pyridine-Ureas as Potential Anticancer Agents: Synthesis and In Vitro Biological Evaluation” (Molecules : A Journal of Synthetic Chemistry and Natural …, 2018)

Key:
Format in all cases: cell-based, human
[1] = test system: MDA-MB-468; assay: NCI one-dose SRB assay (Breast Cancer); conditions: for inhibition at 10 µM: Homo sapiens, MDA-MB-468, 10 μM, read-out: Percentage growth inhibition (GI%); for Growth Percent: MDA-MB-468, 1.00E-5 Molar
How it was run: (§1)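 Growth of the human tumour line after 48 h with 10^−5 M compound was quantified by sulforhodamine B protein staining, giving percentage growth inhibition.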

[2] = test system: MDA-MB-231; assay: NCI one-dose SRB assay (Breast Cancer); conditions: for inhibition at 10 µM: Homo sapiens, MDA-MB-231, 10 μM, read-out: Percentage growth inhibition (GI%); for Growth Percent: MDA-MB-231/ATCC, 1.00E-5 Molar
How it was run: as §1

[3] = test system: HS 578T; assay: NCI one-dose SRB assay (Breast Cancer); conditions: for Growth Percent: 1.00E-5 Molar; for inhibition at 10 µM: Homo sapiens, read-out: Percentage growth inhibition (GI%)
How it was run: as §1

[4] = test system: T-47D; assay: NCI one-dose SRB assay (Breast Cancer); conditions: for Growth Percent: 1.00E-5 Molar; for inhibition at 10 µM: Homo sapiens, T47D, read-out: Percentage growth inhibition (GI%)
How it was run: as §1

[5] = test system: BT-549; assay: NCI one-dose SRB assay (Breast Cancer); conditions: for Growth Percent: BT-549, 1.00E-5 Molar; for inhibition at 10 µM: Homo sapiens, BT-549, 10 μM, read-out: Percentage growth inhibition (GI%)
How it was run: as §1

[6] = test system: MCF7; assay: NCI one-dose SRB assay (Breast Cancer); conditions: for inhibition at 10 µM: Homo sapiens, MCF7, 10 μM, read-out: Percentage growth inhibition (GI%); for Growth Percent: MCF7, 1.00E-5 Molar
How it was run: as §1

[7] = test system: OVCAR-3; assay: NCI one-dose SRB assay (Ovarian Cancer); conditions: for inhibition at 10 µM: Homo sapiens, OVCAR-3, 10 μM, read-out: Percentage growth inhibition (GI%); for Growth Percent: OVCAR-3, 1.00E-5 Molar
How it was run: as §1

[8] = test system: OVCAR-8; assay: NCI one-dose SRB assay (Ovarian Cancer); conditions: for inhibition at 10 µM: Homo sapiens, OVCAR-8, 10 μM, read-out: Percentage growth inhibition (GI%); for Growth Percent: OVCAR-8, 1.00E-5 Molar
How it was run: as §1

[9] = test system: OVCAR-4; assay: NCI one-dose SRB assay (Ovarian Cancer); conditions: for inhibition at 10 µM: Homo sapiens, OVCAR-4, 10 μM, read-out: Percentage growth inhibition (GI%); for Growth Percent: OVCAR-4, 1.00E-5 Molar
How it was run: as §1

[10] = test system: IGROV1; assay: NCI one-dose SRB assay (Ovarian Cancer); conditions: for inhibition at 10 µM: Homo sapiens, IGROV-1, IGROV1, 10 μM, read-out: Percentage growth inhibition (GI%); for Growth Percent: IGROV1, 1.00E-5 Molar
How it was run: as §1

[11] = test system: OVCAR-5; assay: NCI one-dose SRB assay (Ovarian Cancer); conditions: for inhibition at 10 µM: Homo sapiens, OVCAR-5, 10 μM, read-out: Percentage growth inhibition (GI%); for Growth Percent: OVCAR-5, 1.00E-5 Molar
How it was run: as §1

[12] = test system: NCI/ADR-RES; assay: NCI one-dose SRB assay (Ovarian Cancer); conditions: for Growth Percent: 1.00E-5 Molar; for inhibition at 10 µM: Homo sapiens, read-out: Percentage growth inhibition (GI%)
How it was run: as §1

[13] = test system: SK-OV-3; assay: NCI one-dose SRB assay (Ovarian Cancer); conditions: for inhibition at 10 µM: Homo sapiens, SK-OV-3, 10 μM, read-out: Percentage growth inhibition (GI%); for Growth Percent: SK-OV-3, 1.00E-5 Molar
How it was run: as §1

[14] = test system: UO-31; assay: NCI one-dose SRB assay (Renal Cancer); conditions: for inhibition at 10 µM: Homo sapiens, UO-31, 10 μM, read-out: Percentage growth inhibition (GI%); for Growth Percent: UO-31, 1.00E-5 Molar
How it was run: as §1

[15] = test system: 786-0; assay: NCI one-dose SRB assay (Renal Cancer); conditions: for Growth Percent: 786-0, 1.00E-5 Molar; for inhibition at 10 µM: Homo sapiens, 786-0, 10 μM, read-out: Percentage growth inhibition (GI%)
How it was run: as §1

[16] = test system: RXF 393; assay: NCI one-dose SRB assay (Renal Cancer); conditions: for inhibition at 10 µM: Homo sapiens, RXF 393, 10 μM, read-out: Percentage growth inhibition (GI%); for Growth Percent: RXF 393, 1.00E-5 Molar
How it was run: as §1

[17] = test system: TK-10; assay: NCI one-dose SRB assay (Renal Cancer); conditions: for inhibition at 10 µM: Homo sapiens, TK-10, 10 μM, read-out: Percentage growth inhibition (GI%); for Growth Percent: TK-10, 1.00E-5 Molar
How it was run: as §1

[18] = test system: SN12C; assay: NCI one-dose SRB assay (Renal Cancer); conditions: for Growth Percent: 1.00E-5 Molar; for inhibition at 10 µM: Homo sapiens, read-out: Percentage growth inhibition (GI%)
How it was run: as §1

[19] = test system: A498; assay: NCI one-dose SRB assay (Renal Cancer); conditions: for Growth Percent: A498, 1.00E-5 Molar; for inhibition at 10 µM: Homo sapiens, A498, 10 μM, read-out: Percentage growth inhibition (GI%)
How it was run: as §1

[20] = test system: HOP-62; assay: NCI one-dose SRB assay (Non-Small Cell Lung Cancer); conditions: for Growth Percent: HOP-62, 1.00E-5 Molar; for inhibition at 10 µM: Homo sapiens, HOP-62, 10 μM, read-out: Percentage growth inhibition (GI%)
How it was run: as §1

[21] = test system: NCI-H522; assay: as above; conditions: for inhibition at 10 µM: Homo sapiens, NCI-H522, 10 μM, read-out: Percentage growth inhibition (GI%); for Growth Percent: NCI-H522, 1.00E-5 Molar
How it was run: as §1

[22] = test system: NCI-H23; assay: as above; conditions: for inhibition at 10 µM: Homo sapiens, NCI-H23, 10 μM, read-out: Percentage growth inhibition (GI%); for Growth Percent: NCI-H23, 1.00E-5 Molar
How it was run: as §1

[23] = test system: HOP-92; assay: as above; conditions: for Growth Percent: HOP-92, 1.00E-5 Molar; for inhibition at 10 µM: Homo sapiens, HOP-92, 10 μM, read-out: Percentage growth inhibition (GI%)
How it was run: as §1

[24] = test system: EKVX; assay: as above; conditions: for Growth Percent: 1.00E-5 Molar; for inhibition at 10 µM: Homo sapiens, read-out: Percentage growth inhibition (GI%)
How it was run: as §1

[25] = test system: NCI-H322M; assay: as above; conditions: for Growth Percent: 1.00E-5 Molar; for inhibition at 10 µM: Homo sapiens, read-out: Percentage growth inhibition (GI%)
How it was run: as §1

[26] = test system: A549/ATCC; assay: as above; conditions: for Growth Percent: 1.00E-5 Molar; for inhibition at 10 µM: Homo sapiens, read-out: Percentage growth inhibition (GI%)
How it was run: as §1

[27] = test system: NCI-H226; assay: as above; conditions: for inhibition at 10 µM: Homo sapiens, NCI-H226, 10 μM, read-out: Percentage growth inhibition (GI%); for Growth Percent: NCI-H226, 1.00E-5 Molar
How it was run: as §1

[28] = test system: NCI-H460; assay: as above; conditions: for inhibition at 10 µM: Homo sapiens, NCI-H460, 10 μM, read-out: Percentage growth inhibition (GI%); for Growth Percent: NCI-H460, 1.00E-5 Molar
How it was run: as §1

## COc1ccc(-c2ccc(NC(=O)Nc3cccc(C(F)(F)F)c3)c(C)n2)cc1OC [Compound 8i, 1-(6-(3,4-Dimethoxyphenyl)-2-methylpyridin-3-yl)-3-(3-(trifluoromethyl)phenyl) Urea]
[1]
  inhibition at 10 µM: 51%
  Growth Percent: 49.56%
[2]
  inhibition at 10 µM: 31%
  Growth Percent: 69.50%
[3]
  Growth Percent: 74.54%
  inhibition at 10 µM: 26%
[4]
  Growth Percent: 53.57%
  inhibition at 10 µM: 47%
[5]
  Growth Percent: 71.52%
  inhibition at 10 µM: 29%
[6]
  inhibition at 10 µM: 38%
  Growth Percent: 62.46%
[7]
  inhibition at 10 µM: 31%
  Growth Percent: 69.16%
[8]
  inhibition at 10 µM: 19%
  Growth Percent: 81.32%
[9]
  inhibition at 10 µM: 41%
  Growth Percent: 59.07%
[10]
  inhibition at 10 µM: < 10%
  Growth Percent: 91.46%
[11]
  inhibition at 10 µM: < 10%
  Growth Percent: 94.03%
[12]
  Growth Percent: 66.87%
  inhibition at 10 µM: 34%
[13]
  inhibition at 10 µM: < 10%
  Growth Percent: 101.37%
[14]
  inhibition at 10 µM: 26%
  Growth Percent: 74.95%
[15]
  Growth Percent: 69.08%
  inhibition at 10 µM: 31%
[16]
  inhibition at 10 µM: 23%
  Growth Percent: 77.55%
[17]
  inhibition at 10 µM: 21%
  Growth Percent: 79.75%
[18]
  Growth Percent: 79.32%
  inhibition at 10 µM: 21%
[19]
  Growth Percent: 61.34%
  inhibition at 10 µM: 39%
[20]
  Growth Percent: 92.32%
  inhibition at 10 µM: < 10%
[21]
  inhibition at 10 µM: 60%
  Growth Percent: 40.25%
[22]
  inhibition at 10 µM: 29%
  Growth Percent: 71.94%
[23]
  Growth Percent: 55.33%
  inhibition at 10 µM: 45%
[24]
  Growth Percent: 66.90%
  inhibition at 10 µM: 34%
[25]
  Growth Percent: 92.59%
  inhibition at 10 µM: < 10%
[26]
  Growth Percent: 60.26%
  inhibition at 10 µM: 40%
[27]
  inhibition at 10 µM: 28%
  Growth Percent: 72.63%
[28]
  inhibition at 10 µM: 39%
  Growth Percent: 61.77%

## COc1ccc(-c2ccc(NC(=O)Nc3cccc(Cl)c3)c(C)n2)cc1OC [Compound 8j, 1-(3-Chlorophenyl)-3-(6-(3,4-dimethoxyphenyl)-2-methylpyridin-3-yl) Urea]
[1]
  inhibition at 10 µM: 29%
  Growth Percent: 71.36%
[2]
  inhibition at 10 µM: 13%
  Growth Percent: 87.05%
[3]
  Growth Percent: 95.46%
  inhibition at 10 µM: < 10%
[4]
  Growth Percent: 49.90%
  inhibition at 10 µM: 51%
[5]
  Growth Percent: 91.71%
  inhibition at 10 µM: < 10%
[6]
  inhibition at 10 µM: 25%
  Growth Percent: 75.86%
[7]
  inhibition at 10 µM: 10%
  Growth Percent: 90.37%
[8]
  inhibition at 10 µM: 10%
  Growth Percent: 90.16%
[9]
  inhibition at 10 µM: < 10%
  Growth Percent: 91.75%
[10]
  inhibition at 10 µM: < 10%
  Growth Percent: 100.28%
[11]
  inhibition at 10 µM: 12%
  Growth Percent: 88.21%
[12]
  Growth Percent: 84.81%
  inhibition at 10 µM: 16%
[13]
  inhibition at 10 µM: 17%
  Growth Percent: 83.62%
[14]
  inhibition at 10 µM: 21%
  Growth Percent: 79.44%
[15]
  Growth Percent: 71.87%
  inhibition at 10 µM: 29%
[16]
  inhibition at 10 µM: 18%
  Growth Percent: 82.62%
[17]
  inhibition at 10 µM: < 10%
  Growth Percent: 99.31%
[18]
  Growth Percent: 86.84%
  inhibition at 10 µM: 14%
[19]
  Growth Percent: 69.84%
  inhibition at 10 µM: 31%
[20]
  Growth Percent: 77.77%
  inhibition at 10 µM: 23%
[21]
  inhibition at 10 µM: 41%
  Growth Percent: 59.88%
[22]
  inhibition at 10 µM: 11%
  Growth Percent: 89.49%
[23]
  Growth Percent: 60.18%
  inhibition at 10 µM: 40%
[24]
  Growth Percent: 83.81%
  inhibition at 10 µM: 17%
[25]
  Growth Percent: 85.92%
  inhibition at 10 µM: 15%
[26]
  Growth Percent: 61.64%
  inhibition at 10 µM: 39%
[27]
  inhibition at 10 µM: < 10%
  Growth Percent: 91.65%
[28]
  inhibition at 10 µM: 17%
  Growth Percent: 83.94%
